This is an account of results in paper PMC7696940, “Effects of Rationally Designed Physico-Chemical Variants of the Peptide PuroA on Biocidal Activity towards Bacterial and Mammalian Cells” (International Journal of Molecular Sciences, 2020).

The test system of one data set is E. coli ATCC25922. Format: cell-based, Escherichia coli. The following applies: MHB; for MIC E. coli, No NaCl: 0 mM NaCl; for MIC E. coli, No NaCl / MIC E. coli, With 50mM NaCl / MIC E. coli, With 100mM NaCl / MIC E. coli, With 150mM NaCl: triplicate, mode; for MIC E. coli ATCC25922: 37 °C overnight, A595, mode of three independent experiments. As for the experimental part:
(§1) The activity of peptides was determined against the Gram-positive Staphylococcus aureus (ATCC 25923), and the Gram-negative Escherichia coli (ATCC 25922) and Pseudomonas aeruginosa (ATCC 9027) bacteria. Selected peptides were also tested against two clinical isolates of methicillin-resistant Staphylococcus aureus (MRSA), M173525 and M180920, kindly provided by Dr P. B. Ward (Microbiology Department, Austin and Repatriation Medical Centre, Heidelberg West, Victoria, Australia). The Minimum inhibitory concentration (MIC) of peptides was determined by the microtitre broth dilution method, as described in Phillips et al.. Briefly, bacteria were grown in Mueller-Hinton Broth (MHB) at 37 °C overnight with shaking (200 rpm). The cultures were adjusted to 0.5 McFarland turbidity standard (approximately 1 × 10^8 colony forming units (CFU)/mL), then diluted 1:100 in MHB (1 × 10^6 CFU/mL). A total of 75 μL of these suspensions were mixed with 25 μL of peptide solutions (final concentrations 250 to 0.5 μg/mL) and the microtitre plates incubated overnight at 37 °C. Positive growth controls (inoculum and MHB, with no peptide) and sterility controls (0.01% glacial acetic) were also included. Post-incubations, the absorbance of cultures at 595 nm was measured using a microplate reader (POLARstar Omega, Germany). […] To evaluate salt sensitivity of peptides up to physiological levels (150 mM NaCl), overnight cultures of S. aureus and E. coli adjusted to 0.5 McFarland turbidity standard were diluted 1:100 in MHB containing 0, 50, 100 or 150 mM NaCl, and the MICs of peptides determined as above. All tests were conducted in triplicate. The results are shown as the mode of values obtained.

The test system of another data set is P. aeruginosa ATCC9027. Format: cell-based, Pseudomonas aeruginosa. The following applies: MHB, 37 °C overnight, A595; mode of three independent experiments. Here is the method:
as §1

In a further data set the test system is C. albicans FRR 5580. Format: cell-based, Candida albicans. The following applies: PDB, overnight; mode of three independent experiments. Here is the method: The assay was carried out as per Alfred et al.. Candida albicans (FRR 5580) was grown in potato dextrose broth (PDB; Difco-BD, Bergen County, NJ, USA) overnight at 30 °C with shaking (200 rpm) until exponential phase, then adjusted to 0.5 McFarland turbidity standard (approximately 1 × 10^6 cells/mL) and diluted 1:200 with PDB to 0.5 − 2 × 10^3 cells/mL. Peptides in 25 μL volumes were mixed with 75 μL of the yeast suspensions. The controls were included as above. The plates were incubated overnight and absorbance was recorded. All the tests were conducted in triplicate.

The next data set deals with MRSA M173525. Format: cell-based, methicillin-resistant Staphylococcus aureus. Conditions: clinical isolate; MHB, 37 °C overnight; mode of three independent experiments. As for the experimental part: as §1
Another data set relates to MRSA M180920. Format: cell-based, methicillin-resistant Staphylococcus aureus. Conditions: clinical isolate; MHB, 37 °C overnight; mode of three independent experiments. As for the experimental part: as §1
In data set [1] the test system is porcine trypsin and proteinase K. The data set can be described thus: Proteases stability assay. Format: in vitro ADME, porcine; Tritirachium album. Conditions: 1000 µg peptide with 50 µg protease (20:1 w/w), porcine trypsin or proteinase K, PBS pH 7.4, 37 °C, 3 h; read-out activity of supernatant on E. coli and S. aureus; triplicate. Here is the method: The effect of two well-studied proteases, porcine trypsin and proteinase K from Tritirachium album, on the activity of peptides was investigated as per Carmona et al.. Briefly, 1000 µg of a peptide was incubated with 50 µg of a protease (20:1 w/w) at 37 °C for 3 h in phosphate buffered saline PBS (pH 7.4). The enzyme activity was then terminated by heating (70 °C, 5 min) and the samples centrifuged at 12,000× g. The activity of the supernatant on E. coli and S. aureus was tested as above, in triplicate.

For another data set, the system named is NIH-3T3 cells. Briefly: Cytotoxicity, MTT assay. Format: cell-based, mouse. Conditions: 24 h; for IC50 NIH-3T3: peptide up to 250 µg/mL, concentration causing 50% cell growth inhibition, mean of triplicate assays. Here is the method:
(§2) Cytotoxicity to human cervical carcinoma HeLa cells and mouse fibroblastic NIH-3T3 cells was determined using the MTT assay as per Scudiero et al. with minor modifications. The cells were maintained in Dulbecco’s Modified Eagle Medium (DMEM) with 10% foetal bovine serum (FBS) and 1% penicillin G in a humidified incubator (Heraeus Hera Cell incubator) at 37 °C with 5% CO2. They were seeded in 96-well microtiter plates at 1 × 10^4 cells/well and allowed to adhere for 24 h in the incubator. The medium was removed, and adherent cells were washed with PBS. Fresh media containing serially diluted peptides in PBS (final concentrations 4 to 250 µg/mL) were added and the cells incubated for 24 h. Cells without peptides were used as negative controls. Following incubations, the medium was removed, and adherent cells were washed with PBS. 150 µL of MTT (diluted to 0.33 mg/mL in DMEM) and the plates incubated for 3 h. The precipitated formazan was dissolved in 100 µL of DMSO and its absorbance measured at 570 nm. Cell viability was determined as: (OD570 nm peptide treated cells/(OD570 nm untreated cells) × 100. Positive cytotoxicity was defined as peptide concentration that causes 50% growth inhibition in a cell line (IC50). All tests were carried out in triplicate.

A further data set deals with HeLa cells. Format: cell-based, human. The following applies: MTT, 24 h, peptide up to 250 µg/mL; concentration causing 50% cell growth inhibition; mean of triplicate assays. Here is the method:
as §2

Converted amounts (≈) assume the structure as drawn. Where no end group is shown, it is not given here. Some results are limits rather than exact numbers.

In the case of `CC(C)[C@H](NC(=O)[C@@H]1CCCN1C(=O)[C@@H](N)Cc1ccccc1)C(=O)N[C@H](C(=O)N[C@@H](Cc1c[nH]c2ccccc12)C(=O)N[C@@H](CCCNC(=N)N)C(=O)N[C@@H](Cc1c[nH]c2ccccc12)C(=O)N[C@@H](Cc1c[nH]c2ccccc12)C(=O)N[C@@H](CCCCN)C(=O)N[C@@H](Cc1c[nH]c2ccccc12)C(=O)N[C@@H](Cc1c[nH]c2ccccc12)C(=O)N[C@@H](CCCCN)C(=O)NCC(N)=O)[C@@H](C)O` [PuroA], in the data set with E. coli ATCC25922, the “MIC E. coli, No NaCl” value was determined as 16 µg/mL (≈ 8.59 µM); the “MIC E. coli, With 50mM NaCl” value came out at 16 µg/mL (≈ 8.59 µM); the “MIC E. coli, With 100mM NaCl” value worked out at 32 µg/mL (≈ 17.2 µM); the “MIC E. coli, With 150mM NaCl” value was found to be 64 µg/mL (≈ 34.4 µM). Besides, the “MIC E. coli ATCC25922” value in the data set with E. coli ATCC25922 came out at 16 µg/mL (≈ 8.59 µM). Also, the “MIC P. aeruginosa ATCC9027” value against P. aeruginosa ATCC9027 was found to be 64 µg/mL (≈ 34.4 µM). Besides, the “MIC C. albicans FRR 5580” value in the data set with C. albicans FRR 5580 is 125 µg/mL (≈ 67.1 µM). Further, the “MIC MRSA M173525” value against MRSA M173525 stood at 16 µg/mL (≈ 8.59 µM). For the same compound, the “MIC MRSA M180920” value in the data set on MRSA M180920 turned out to be 16 µg/mL (≈ 8.59 µM). For the same compound, in data set [1], the “Protease Stability” value was “Unstable”. For the same compound, the “IC50 NIH-3T3” value with NIH-3T3 cells is 250 µg/mL (≈ 134 µM). The “IC50 HeLa” value in the data set with HeLa cells was greater than 250 µg/mL.
Take RKRWWRWWKWWKR-NH2 [Peptide P1]: in the data set on E. coli ATCC25922, the “MIC E. coli, No NaCl” value is 16 µg/mL; the “MIC E. coli, With 50mM NaCl” value is 16 µg/mL; the “MIC E. coli, With 100mM NaCl” value turned out to be 16 µg/mL; the “MIC E. coli, With 150mM NaCl” value is 16 µg/mL. For the same compound, the “MIC P. aeruginosa ATCC9027” value in the data set on P. aeruginosa ATCC9027 stood at 16 µg/mL. For the same compound, in the data set with C. albicans FRR 5580, the “MIC C. albicans FRR 5580” value turned out to be 64 µg/mL. In the data set on MRSA M173525, the “MIC MRSA M173525” value was determined as 16 µg/mL. Also, the “MIC MRSA M180920” value against MRSA M180920 was 8 µg/mL. Further, in data set [1], the “Protease Stability” value is given as “Unstable”. The “IC50 NIH-3T3” value in the data set with NIH-3T3 cells was 250 µg/mL. Moreover, in the data set on HeLa cells, the “IC50 HeLa” value was found to be 32 µg/mL.
As to WRWWKWW-NH2 [Peptide W7], in the data set on E. coli ATCC25922, the “MIC E. coli, No NaCl” value is 4 µg/mL; the “MIC E. coli, With 50mM NaCl” value was found to be 4 µg/mL; the “MIC E. coli, With 100mM NaCl” value is 4 µg/mL; the “MIC E. coli, With 150mM NaCl” value was 4 µg/mL. Besides, the “MIC E. coli ATCC25922” value against E. coli ATCC25922 amounted to 4 µg/mL. In addition, the “MIC P. aeruginosa ATCC9027” value in the data set with P. aeruginosa ATCC9027 came to 32 µg/mL. In addition, the “MIC C. albicans FRR 5580” value against C. albicans FRR 5580 came out at 64 µg/mL. Moreover, in the data set with MRSA M173525, the “MIC MRSA M173525” value amounted to 8 µg/mL. In addition, the “MIC MRSA M180920” value against MRSA M180920 worked out at 8 µg/mL. Besides, in data set [1], the “Protease Stability” value was “Unstable”. Besides, in the data set on NIH-3T3 cells, the “IC50 NIH-3T3” value is 250 µg/mL. For the same compound, the “IC50 HeLa” value in the data set with HeLa cells was 250 µg/mL.
For the compound WWRWWKWW-NH2 [WW], in the data set on E. coli ATCC25922, the “MIC E. coli, No NaCl” value worked out at 8 µg/mL; the “MIC E. coli, With 50mM NaCl” value is 8 µg/mL; the “MIC E. coli, With 100mM NaCl” value worked out at 8 µg/mL; the “MIC E. coli, With 150mM NaCl” value worked out at 8 µg/mL. Besides, the “MIC E. coli ATCC25922” value against E. coli ATCC25922 came out at 8 µg/mL. Further, the “MIC P. aeruginosa ATCC9027” value against P. aeruginosa ATCC9027 is 32 µg/mL. In the data set on C. albicans FRR 5580, the “MIC C. albicans FRR 5580” value came to 64 µg/mL. In addition, in the data set with MRSA M173525, the “MIC MRSA M173525” value amounted to 4 µg/mL. For the same compound, the “MIC MRSA M180920” value in the data set with MRSA M180920 was found to be 4 µg/mL. In data set [1], the “Protease Stability” value is listed as “Unstable”. In addition, the “IC50 NIH-3T3” value in the data set with NIH-3T3 cells is greater than 250 µg/mL. Further, in the data set on NIH-3T3 cells (up to 250 µg/mL), the “Cytotoxicity to NIH-3T3 mouse fibroblasts (in words)” value is “no cytotoxicity”. Also, the “IC50 HeLa” value in the data set with HeLa cells amounted to 250 µg/mL.
